# Tests used:
# [1] = test system: Foxp3 CNS1-luciferase reporter / Smad3; assay: Foxp3 CNS1-luciferase reporter assay in NIH/3T3 cells; format: cell-based, mouse; conditions: 20 μM
# [2] = test system: CD4+ T cells in CNS of EAE mice; assay: Flow cytometry of CNS T cells of treated EAE mice; format: in vivo, mouse; conditions: 100 μg i.v., replicate 4
# [3] = test system: TGF-β/Smad signaling in CD4+ T cells; assay: qPCR analysis of TGF-β/Smad signaling downstream genes; format: cell-based, mouse; conditions: 20 μM 17aa, 24 h
# Procedure: Figure 4 Dleu2-17aa modulates TGF-β/Smad signaling to promote Foxp3 transcription. (A) qPCR analysis of TGF-β/Smad signaling downstream genes in CD4^+ T cells treated with Dleu2-17aa or scrPEP for 24 h and challenged with TGF-β to activate the signaling pathway (n = 3). (B) NIH/3T3 cells were transfected with a Foxp3 CNS1-luciferase reporter plasmid and a Smad3 expression vector. Subsequently, the cells were treated with either Dleu2-17aa or scrPEP. Luciferase activity fold induction was quantified (n = 3). (C) Foxp3 CNS1 region enrichment by Smad3 treated with or without Dleu2-17aa for 24 h in CD4^+ T cells was assessed by ChIP-qPCR (n = 3). (D) EMSA was performed in NIH/3T3 cell nuclear lysates using a 10 μM biotin-labeled Foxp3 probe and treated with Dleu2-17aa or scrPEP (3, 10, 30 μM). There were band shifts to a higher molecular weight and an increase in band intensity by Dleu2-17aa treatment. Data information: n indicates biological replicate. Error bars are mean ± SEM; **P < 0.01, and ***P < 0.001. Statistical analysis was by two-tailed Student’s t-test for (A–C). Source data are available online for this figure.
# Total RNA from cells or tissues was extracted using TRIzol reagent (Invitrogen) and then quantified. 1 μg of total RNA was reverse transcribed into cDNA with HiScript II Q RT SuperMix for qPCR (+gDNA Wiper) (Vazyme, China, R223-01). The cDNA samples were run in triplicate at 200 ng/well. Quantitative real-time PCR (qPCR) was performed using ChamQ Universal SYBR qPCR Master Mix (Vazyme, China) on an Applied Biosystems 7500 Fast Real-Time PCR System or a ViiA 7 Real-Time PCR System (Applied Biosystems). All gene expression results were normalized to the expression of the housekeeping gene GAPDH. Primer sequences are listed as follows: Dleu2 forward, 5′-[…]-3 and reverse, 5′-[…]-3; Foxp3 forward, 5′-CCCATCCCCAGGAGTCTTG-3′ and reverse, 5′-[…]-3′; Ctla2a forward, 5′-[…]-3′ and reverse, 5′-[…]-3′; Ccr8 forward, 5′-[…]-3′ and reverse, 5′-[…]-3′; Tgf-β forward: 5′-[…]-3′ and reverse, 5′-[…]-3′; Ctla4 forward, 5′-[…]-3′ and reverse, 5′-[…]-3′; Gapdh forward, 5′-[…]-3′ and reverse, 5′-GGGGTCGTTGATGGCAAC-3′.
sequence,measurement,setting,value
"ARGPARRMRGGRRRRLR [scrPEP, scrambled control peptide of Dleu2-17aa]",Relative luciferase activity,"[1]; with Smad3 vector, replicate 4",1.896
same,Relative luciferase activity,"[1]; with Smad3 vector, replicate 5",1.262
same,Relative luciferase activity,"[1]; without Smad3 vector, replicate 4",0.7583
same,Relative luciferase activity,"[1]; without Smad3 vector, replicate 5",0.8478
same,CD4+ / Live Cells(%),[2],10.2%
same,Foxp3+/ CD4+ Cells (%),[2],10.5%
same,IFN-γ+/ CD4+ Cells(%),[2],22.6%
same,"Relative mRNA expression, Ccr8","[3]; TGF-β, replicate 1",1.77
same,"Relative mRNA expression, Clta4","[3]; TGF-β, replicate 1",4.488
same,"Relative mRNA expression, Ctla2a","[3]; TGF-β, replicate 1",7.981
same,"Relative mRNA expression, Foxp3","[3]; TGF-β, replicate 1",19.2862
same,"Relative mRNA expression, Tgf-β","[3]; TGF-β, replicate 1",0.9918
same,"Relative mRNA expression, Ccr8","[3]; TGF-β, replicate 2",1.871
same,"Relative mRNA expression, Clta4","[3]; TGF-β, replicate 2",3.767
same,"Relative mRNA expression, Ctla2a","[3]; TGF-β, replicate 2",6.697
same,"Relative mRNA expression, Foxp3","[3]; TGF-β, replicate 2",27.373
same,"Relative mRNA expression, Tgf-β","[3]; TGF-β, replicate 2",0.9024
same,"Relative mRNA expression, Ccr8","[3]; TGF-β, replicate 3",1.768
same,"Relative mRNA expression, Clta4","[3]; TGF-β, replicate 3",4.326
same,"Relative mRNA expression, Ctla2a","[3]; TGF-β, replicate 3",4.254
same,"Relative mRNA expression, Foxp3","[3]; TGF-β, replicate 3",26.607
same,"Relative mRNA expression, Tgf-β","[3]; TGF-β, replicate 3",1.365
same,"Relative mRNA expression, Ccr8","[3]; no TGF-β, replicate 1",1
same,"Relative mRNA expression, Clta4","[3]; no TGF-β, replicate 1",1
same,"Relative mRNA expression, Ctla2a","[3]; no TGF-β, replicate 1",1
same,"Relative mRNA expression, Foxp3","[3]; no TGF-β, replicate 1",1
same,"Relative mRNA expression, Tgf-β","[3]; no TGF-β, replicate 1",1
same,"Relative mRNA expression, Ccr8","[3]; no TGF-β, replicate 2",0.871
same,"Relative mRNA expression, Clta4","[3]; no TGF-β, replicate 2",0.794
same,"Relative mRNA expression, Ctla2a","[3]; no TGF-β, replicate 2",0.868
same,"Relative mRNA expression, Foxp3","[3]; no TGF-β, replicate 2",1
same,"Relative mRNA expression, Tgf-β","[3]; no TGF-β, replicate 2",0.7198
same,"Relative mRNA expression, Ccr8","[3]; no TGF-β, replicate 3",1
same,"Relative mRNA expression, Clta4","[3]; no TGF-β, replicate 3",0.856
same,"Relative mRNA expression, Ctla2a","[3]; no TGF-β, replicate 3",1
same,"Relative mRNA expression, Foxp3","[3]; no TGF-β, replicate 3",0.967
same,"Relative mRNA expression, Tgf-β","[3]; no TGF-β, replicate 3",0.8563
